The results in this text go back to patent publication US12115157B2, “3-phenoxyazetidin-1-yl-heteroaryl pyrrolidine derivatives and the use thereof as medicament” (Boehringer Ingelheim International GmbH, priority 2021, dated 2024).

One series concerns the target human GPR52 (Homo sapiens (Human), UniProt Q9Y2T5). In words: HTRF assay for direct cAMP measurement. It counts as cell-based. The note with it: CHO-K1 cells stably expressing recombinant human GPR52, mean EC50. Here is the method: HTRF cAMP assays were performed using commercially available assay kits according to the manufacturer's instructions (cAMP Dynamic 2 Assay Kit; #62AM4PEJ, Cisbio Bioassays, Bedford, MA). An aliquot of CHO-K1 cells stably expressing recombinant human GPR52 was thawed and resuspended in cell buffer (1×PBS (w/o Ca^2+/Mg^2+)) at a density of 4×10^5 cells per mL. Test compounds were solubilized in DMSO to 10 mM stock solutions and serially diluted in DMSO using 6-fold dilutions to generate 8-point dose response curves. These serially diluted samples were then diluted 1:50 in compound dilution buffer (1×PBS (w/o Ca^2+/Mg^2+) containing 0.5 mM IBMX, 0.1% BSA) to achieve a 4× stock. The diluted compounds were transferred (5 μL per well) in duplicate to the 384-well assay plate (Optiplate #6007290, PerkinElmer, Waltham, MA). Both a positive (reference compound) and negative (non-stimulated vehicle) control was included in each assay run in column 23. The cell suspension was subsequently dispensed into the 384-well assay plates at 15 μL per well (6000 cells) such that the compound was diluted to 1×. […] After a one-hour incubation at room temperature, 10 μL of cAMP D2 reagent followed by 10 μL of cryptate reagent (provided in the Cisbio kit) was added to each well. Plates were then incubated at room temperature for one hour prior to reading. Time-resolved fluorescence measurements were collected on an EnVision® HTRF plate reader (PerkinElmer, Waltham, MA). Counts from the plate reader were fit to the cAMP standard curve included on each plate to determine the amount of cAMP in each test well. The % control was calculated based on the […]. Dose-response curves were generated from the cAMP data and analyzed using a nonlinear least squares curve-fitting program to obtain EC50 values.
For orientation: In TR-FRET formats the signal depends on donor and acceptor labels being close together.

Series [1] deals with primary human hepatocytes. In words: In vitro metabolite profiling in primary human hepatocytes with or without proadifen. The note with it: for % Parent of drug-related material: incubations in primary human hepatocytes, 1 μM test compound; for Contribution of amide hydrolysis to metabolism (incl. secondary metabolites): abundance of deacetylated metabolites relative to all metabolites. It counts as in vitro ADME. Here is the method: (§1) In vitro metabolite profiling to evaluate the involvement of non-CYP-enzyme-mediated metabolic pathways such as hydrolysis in addition to CYP-mediated pathways is based on the semiquantitative analysis of the formation of prototypic metabolites in incubations with liver microsomes (with and without beta-nicotinamide adenine dinucleotide phosphate, NADPH), primary human hepatocytes (with and without the pan-CYP inhibitor proadifen) and recombinant CYP enzymes.
An additional measure to identify CYP-independent metabolic pathways is the use of the pan-CYP inhibitor proadifen in incubations of the test compound with human hepatocytes. In presence of proadifen, the CYP-related pathways are inhibited and metabolites would primarily be generated via non-CYP pathways.
The involvement of non-CYP-enzymes in metabolic transformations of the test compound was further investigated using primary human hepatocytes in suspension in presence or absence of the pan-CYP inhibitor proadifen (50 μM final incubation concentration). After recovery from cryopreservation, human hepatocytes were incubated in Dulbecco's modified eagle medium supplemented with 3.5 μg glucagon/500 ml, 2.5 mg insulin/500 ml and 3.75 mg/500 ml hydrocortisone containing 5% (v/v) human serum.
Following a 30 min preincubation in a cell culture incubator (37° C., 10% CO2) with or without 50 μM proadifen, test compound solution was spiked into the hepatocyte suspension to obtain a final cell density of 1.0*10^6 to 4.0*10^6 cells/ml (depending on the metabolic turnover rate of the compound observed with primary human hepatocytes), a final test compound concentration of 1 μM, and a final DMSO concentration of 0.05% (v/v).
The cells were incubated for six hours (incubator, horizontal shaker) and samples were removed from the incubation after 0, 0.5, 1, 2, 4 or 6 hours, depending on the metabolic turnover rate. Samples were quenched with acetonitrile and pelleted by centrifugation. The supernatant was transferred to a 96-deepwell plate, evaporated under nitrogen, and resuspended prior to bioanalysis by liquid chromatography-high resolution mass spectrometry for identification of putative metabolites.
The contribution of hydrolysis was calculated based on the abundance of the respective deacetylated metabolite(s) of the compounds of the present invention relative to all metabolites observed in incubations with human hepatocytes.

Series [2] is described as follows: In vitro metabolite profiling in human liver microsomes in absence of NADPH. The arrangement: key: yes: Metabolite is formed in presence of human liver microsomes in the absence of cofactors as indication of a non-CYP-dependent pathway; Metabolite is not detected in microsomal incubations. It counts as in vitro ADME. Here is the method:
as §1
(§2) The involvement of hydrolases, such as carboxylesterases or arylacetamide deacetylase, is assumed if the metabolite resulting from amide hydrolysis of a compound of the present invention of general formula (I) wherein R^6 is an acetyl-group, i.e. the deacetylated compound thereof, is not formed in presence of the relevant drug-metabolizing human recombinant CYP enzymes but is formed in human liver microsomes in the absence of NADPH. Hydrolases are highly abundant in liver microsomes; however, in contrast to CYP-related metabolic processes, the catalytic activity of hydrolases is independent of NADPH. As such, the deacetylated metabolite would be formed in incubations of human liver microsomes lacking NADPH.
(§3) A phenotyping assay was performed to identify the CYP enzymes responsible for metabolic conversion of the compound. The metabolic degradation of the test compound and the assessment of formation of metabolites was performed using Supersomes (human CYP expressed in baculovirus infected insect cells) and human liver microsomes, respectively. Compounds were tested specifically for their conversion by CYP isoenzymes 1A1, 1A2, 2B6, 2C8, 2C9, 2C19, 2D6, 3A4 and 3A5. […]
(§4) Following a short preincubation period for 15 min at 37° C., the reaction was initiated by addition of NADPH (reduced form, 1 mM). […] Samples were analyzed for formation of putative metabolites by means of by liquid chromatography-high resolution mass spectrometry.

The subject of series [3] is human recombinant CYP enzymes (1A1, 1A2, 2B6, 2C8, 2C9, 2C19, 2D6, 3A4, 3A5). Description: CYP phenotyping with human recombinant CYP enzymes (Supersomes). Set-up: key: yes: Metabolite is formed in presence of human recombinant CYP-enzymes; Metabolite is not detected in presence of human recombinant CYP-enzymes as indication of a non-CYP-dependent pathway. It counts as in vitro ADME. Here is the method:
as §1, §2, §3, §4

The mark [4] stands for this setting: secondary metabolite m405 (of m411).
[5] abbreviates: secondary metabolite m425 (of m411).
Setting [6] is: secondary metabolite m443 (of m429).

Chain of human GPR52 (Q9Y2T5 whole entry): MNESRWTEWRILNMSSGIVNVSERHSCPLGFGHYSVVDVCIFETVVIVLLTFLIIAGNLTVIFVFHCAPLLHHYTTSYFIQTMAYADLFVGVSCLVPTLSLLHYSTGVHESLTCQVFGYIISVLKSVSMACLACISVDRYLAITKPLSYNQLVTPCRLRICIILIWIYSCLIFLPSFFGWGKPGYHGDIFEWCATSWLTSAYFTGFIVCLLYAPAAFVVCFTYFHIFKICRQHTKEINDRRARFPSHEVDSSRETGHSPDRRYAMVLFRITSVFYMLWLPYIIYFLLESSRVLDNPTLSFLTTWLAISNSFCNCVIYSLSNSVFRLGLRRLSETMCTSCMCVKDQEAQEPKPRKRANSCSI

The term EC50 denotes the concentration giving half of the maximal effect. Take `CC(=O)N1C[C@H](NC(=O)c2nccnc2N2CC(Oc3cc(F)cc(F)c3)C2)C(F)(F)C1` [Example 10a]: the EC50 on human GPR52 amounted to 14 nM. The “% Parent of drug-related material” value in series [1] came out at 86%. Further, the “Contribution of amide hydrolysis to metabolism (incl. secondary metabolites)” value (“Contribution of amide hydrolysis” below) in series [1] (primary human hepatocytes) is 51%. The “Formation in human liver microsomal incubations in absence of NADPH” value in series [2] (setting [4]) and in series [2] (setting [5]) was “no^5” each time. Further, the “Specific formation in human recombinant CYP enzymes” value in series [3] (setting [4]) and in series [3] (setting [5]) was “no^5” each time.

For `CC(=O)N1C[C@H](NC(=O)c2nccnc2N2CC(Oc3cc(F)c(F)c(F)c3)C2)C(F)(F)C1` [Example 11b], the “% Inhibition by 50 μM proadifen” value in series [1] (formation of secondary metabolite m443 (of m429), primary human hepatocytes) was 82^6 % untreated control. In addition, in series [1], the “% Parent of drug-related material” value amounted to 82%. In addition, the “Contribution of amide hydrolysis” value in series [1] (primary human hepatocytes) came out at 49%. Moreover, the “Formation in human liver microsomal incubations in absence of NADPH” value in series [2] (setting [6]) is “no^6”. The “Specific formation in human recombinant CYP enzymes” value in series [3] (setting [6]) is “no”.

`CC(=O)N1CC[C@@H](NC(=O)c2nsnc2N2CC(Oc3cc(F)cc(F)c3)C2)C1` [Example 15a]: at human GPR52, the EC50 was determined as 20 nM. The “% Parent of drug-related material” value in series [1] turned out to be 92%. Also, in series [1] (primary human hepatocytes), the “Contribution of amide hydrolysis” value is reported as 6%.
